Experimental data reported in article PMC6017193, “Structure-Based Discovery of a Series of 5H-Pyrrolo[2,3-b]pyrazine FGFR Kinase Inhibitors” (Molecules : A Journal of Synthetic Chemistry and Natural …, 2018).

Biological target: FGFR3 (Homo sapiens, UniProt P22607)
Experiment: Kinase panel profiling
Assay type: biochemical

FGFR3, sequence (P22607 23-806): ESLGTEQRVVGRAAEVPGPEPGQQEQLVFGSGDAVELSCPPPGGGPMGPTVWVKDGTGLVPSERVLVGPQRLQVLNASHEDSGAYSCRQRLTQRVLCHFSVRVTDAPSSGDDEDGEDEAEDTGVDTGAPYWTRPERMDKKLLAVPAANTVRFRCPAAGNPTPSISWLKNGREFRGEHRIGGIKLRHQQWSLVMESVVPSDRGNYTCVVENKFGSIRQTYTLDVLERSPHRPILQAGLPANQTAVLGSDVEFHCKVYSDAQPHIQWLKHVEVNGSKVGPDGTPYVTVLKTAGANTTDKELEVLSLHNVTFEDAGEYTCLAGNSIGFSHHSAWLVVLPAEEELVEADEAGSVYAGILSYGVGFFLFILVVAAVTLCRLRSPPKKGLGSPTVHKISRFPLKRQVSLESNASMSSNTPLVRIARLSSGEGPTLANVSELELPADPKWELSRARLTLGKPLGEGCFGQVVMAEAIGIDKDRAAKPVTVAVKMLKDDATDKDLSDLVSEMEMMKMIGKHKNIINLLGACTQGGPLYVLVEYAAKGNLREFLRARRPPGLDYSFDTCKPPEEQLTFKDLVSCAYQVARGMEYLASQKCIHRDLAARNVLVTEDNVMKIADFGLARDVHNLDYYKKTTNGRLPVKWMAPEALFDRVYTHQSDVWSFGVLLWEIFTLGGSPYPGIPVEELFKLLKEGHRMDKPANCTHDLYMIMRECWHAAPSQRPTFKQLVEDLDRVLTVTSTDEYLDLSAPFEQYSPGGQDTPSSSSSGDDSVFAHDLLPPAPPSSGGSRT

Structure (SMILES): O=S(=O)(c1cn(CCF)cn1)n1ccc2ncc(-c3cn[nH]c3)nc21 [Compound 13, 5-((1-(2-fluoroethyl)-1H-imidazol-4-yl)sulfonyl)-3-(1H-pyrazol-4-yl)-5H-pyrrolo[2,3-b]pyrazine]
- inhibition at 0.01 µM (10 nM): 42.9%
- inhibition at 0.1 µM (100 nM): 79%
- inhibition at 1 µM (1000 nM): 88.9%
